Values joined by “and” are separate entries in the source; they are usually repeats but may differ in a detail not shown here. Equal values may be shown once.
Legend:
Type in all cases: physicochemical
[1] = Absorption properties of the terbium and europium complexes in TRIS/HCl buffer; settings: 0.01M TRIS/HCl buffer at pH = 7.0
From the text: By way of example, all of the absorption and emission properties of the terbium and europium complexes synthesized from the ligands (I-1) to (I-4) in accordance with the invention are summarized in Table 1 below: […]

[2] = Emission properties: luminescence lifetime and quantum luminescence yield in water and D2O; settings: for Emission τ (luminescence lifetime): error estimated ±5%; for Emission φ (quantum luminescence yield): error estimated ±15%
From the text: Their optical luminescence properties, the luminescence lifetimes and the brightness properties are exceptional, with quantum yields of about 38% for Tb, 18% for Eu and lifetimes of the excited states of greater than 3 milliseconds for the Tb(I-3) and Tb(I-4) complexes.
By way of example, all of the absorption and emission properties of the terbium and europium complexes synthesized from the ligands (I-1) to (I-4) in accordance with the invention are summarized in Table 1 below:
The parameters φ and τ represent, respectively, the quantum luminescence yields and the luminescence lifetimes. They may be measured in water and in D2O.

[3] = Stability of terbium complexes (luminescence lifetime) in buffers with ligands capable of decomplexing the lanthanide ions; settings: for stability: various aqueous media
Procedure: By way of example, the stability of the terbium complexes synthesized from the ligands (I-1) to (I-4) in accordance with the invention is given in Table 2 below. Various buffers in the presence of ligands capable of decomplexing the lanthanide ions were tested. For comparative purposes, Table 2 also gives the stability of a terbium complex TbL4 of the prior art corresponding to the following formula: […]

[4] = Tris 50 mM - Serum 50%, pH = 7.0
[5] = Tris 0.1M - EDTA 10 mM, pH = 7.0
[6] = Tris 0.1M - KF 400 mM, pH = 7.0

Row | Compound | Absorption λabs [1] | Emission τ (luminescence lifetime) ([2]; D2O) [ms] | Emission φ (quantum luminescence yield) ([2]; D2O) [%] | Emission τ (luminescence lifetime) ([2]; H2O) [ms] | Emission φ (quantum luminescence yield) ([2]; H2O) [%] | τ ([3]; H2O, estimated error ±5%) [ms] | τ ([3]; Phosphate 0.1M, pH = 7.0) [ms] | τ [3, 4] [ms] | τ [3, 5] [ms] | τ [3, 6] [ms] | τ ([3]; Tris 0.1M, pH = 7.0) [ms] | stability [3]
1 | CCOP(=O)([O-])CN(CC(=O)[O-])Cc1cc(C#Cc2ccc(C(=O)NCCCC(=O)[O-])c3ccccc23)cc(CN(CC(=O)[O-])CP(=O)([O-])OCC)n1.[Eu+3].[Na+].[Na+] [Eu(I-1)] | 266 nm and 349 nm | 2.4 | 24 | 1.5 | 16 |  |  |  |  |  |  | 
2 | CCOP(=O)([O-])CN(CC(=O)[O-])Cc1cc(C#Cc2ccc(C#CCCCCC(=O)[O-])c3ccccc23)cc(CN(CC(=O)[O-])CP(=O)([O-])OCC)n1.[Eu+3].[Na+].[Na+] [Eu(I-2)] | 265 nm and 347 nm | 2.4 | 26 | 1.6 | 17 |  |  |  |  |  |  | 
3 | CCOP(=O)([O-])CN(Cc1cc(C#Cc2ccc(C(=O)NCCCC(=O)[O-])c3ccccc23)cc(CN(CP(=O)([O-])OCC)CP(=O)([O-])OCC)n1)CP(=O)([O-])OCC.[Eu+3].[Na+].[Na+] [Eu(I-3)] | 270 nm and 352 nm | 2.5 | 22 | 1.7 | 18 |  |  |  |  |  |  | 
4 | CCOP(=O)([O-])CN(Cc1cc(C#Cc2ccc(C#CCCCCC(=O)[O-])c3ccccc23)cc(CN(CP(=O)([O-])OCC)CP(=O)([O-])OCC)n1)CP(=O)([O-])OCC.[Eu+3].[Na+].[Na+] [Eu(I-4)] | 268 nm and 350 nm | 2.5 | 24 | 1.6 | 17 |  |  |  |  |  |  | 
5 | CCOP(=O)([O-])CN(CC(=O)[O-])Cc1cc(C#Cc2ccc(C(=O)NCCCC(=O)[O-])c3ccccc23)cc(CN(CC(=O)[O-])CP(=O)([O-])OCC)n1.[Na+].[Na+].[Tb+3] [Tb(I-1)] | 268 nm and 348 nm | 3.1 | 46 | 2.8 | 35 | 2.8 | 2.7 | 2.6 | 2.6 | 2.6 | 2.7 | 
6 | CCOP(=O)([O-])CN(CC(=O)[O-])Cc1cc(C#Cc2ccc(C#CCCCCC(=O)[O-])c3ccccc23)cc(CN(CC(=O)[O-])CP(=O)([O-])OCC)n1.[Na+].[Na+].[Tb+3] [Tb(I-2)] | 270 nm and 349 nm | 3.2 | 45 | 2.6 | 32 | 2.6 | 2.5 | 2.4 | 2.4 | 2.5 | 2.5 | 
7 | CCOP(=O)([O-])CN(Cc1cc(C#Cc2ccc(C(=O)NCCCC(=O)[O-])c3ccccc23)cc(CN(CP(=O)([O-])OCC)CP(=O)([O-])OCC)n1)CP(=O)([O-])OCC.[Na+].[Na+].[Tb+3] [Tb(I-3)] | 272 nm and 353 nm | 3.4 | 42 | 3.1 | 38 | 3.1 | 2.9 | 3.0 | 3.0 | 2.9 | 3.0 | excellent stability
8 | CCOP(=O)([O-])CN(Cc1cc(C#Cc2ccc(C#CCCCCC(=O)[O-])c3ccccc23)cc(CN(CP(=O)([O-])OCC)CP(=O)([O-])OCC)n1)CP(=O)([O-])OCC.[Na+].[Na+].[Tb+3] [Tb(I-4)] | 272 nm and 352 nm | 3.5 | 41 | 3.2 | 36 | 3.2 | 3.0 | 3.0 | 3.1 | 3.0 | 3.1 | excellent stability
